Experiments:
[1] = system: C57BL/6 mice fed with high fat diet (HFD); assay: HFD-fed C57BL/6 mouse model of NASH, Compound 1 15 mg/kg; format: in vivo
Procedure: To determine the liver and muscle lipid content, muscle and liver tissues (40-80 mg) were homogenized in 0.5 ml of chloroform: Tris solution (v/v, 1:1), the homogenate was transferred to 1 ml of chloroform:methanol solution (v/v, 2:1) centrifuged at 3000 g (at −2° C.) for 10 min (Heraeus Megafuge 16R centrifuge). The organic phase was mixed with 5% Triton X100 in chloroform, dried and re-dissolved in water. After lipid extraction, triglyceride (TG) concentration in samples was measured with Triglyceride Quantification Kit (BioVision), according to the manufactures instructions. Plasma Free fatty acids and β-hydroxybutyrate were determined utilizing commercial colorimetric kits (BioVision) directly from plasma samples.
Male C57BL/6J mice, 7 to 8 weeks old, were housed randomly in standard cages and were fed a HFD, or atherogenic diet (consisting 1% Chol and 0.5% cholic acid, see also Table 3). All mice had free access to water during the experimental period. During the feeding period body weight was monitored every 3 days. In the HFD experiment, after 4 or 6 weeks, the resultant obese mice were treated with antagomiR-122 ([…] once a week for 3 weeks), or i.p. injected with Compound 1 (RORα agonist, 7.5 mg/kg twice a week for 3 weeks; or 15 mg/kg 3 times a week for 3 weeks). The obese control (HFD) group was administered only saline with DMSO and antagomiR-control. After 3 weeks of treatment mice were sacrificed and livers were taken for RNA-seq analysis. Livers, white adipose, and skeletal muscle tissues were frozen in liquid nitrogen or in optimum cutting temperature embedded frozen blocks, for further RNA and histologic analysis. In the atherogenic diet experiment mice were treated with 15 mg/kg Compound 1 after 3 weeks with the diet. After 3.5 weeks of treatment, mice were sacrificed, and the livers were frozen in liquid nitrogen or in optimum cutting temperature embedded frozen blocks. Plasma was collected from atherogenic diet-fed mice and saved in −20° C. for ALT and AST analysis using the Reflotron® Analyzer and test-strips (Roche).
Experimental design: C57BL/6 mice fed for 6 weeks with high fat diet (HFD) were injected with 15 mg/kg Compound 1 (or saline+DMSO) 3 times a week for 3 weeks (n=6).
Experimental design: C57BL/6 mice fed for 6 weeks with HFD were injected with 15 mg/kg Compound 1 (or saline+DMSO) 3 times a week for 3 weeks (n=6).

[2] = system: C57BL/6 mice fed with HFD; assay: Insulin tolerance test in HFD-fed C57BL/6 mice; format: in vivo; details: 15 mg/kg 3 times a week for 3 weeks
Procedure: At 4 months of age, an insulin tolerance test was performed on fasted C57BL/6 male mice following HFD feeding for 9 weeks following Compound 1 or saline with DMSO injections. Mice received an i.p. injection of human insulin (Actrapid) at a dosage of 0.88 units/kg followed by glucose checks every 20 minutes. […] Glucose measurements were assessed on blood from the tail following a tail snip at indicated time-points using a blood glucometer (Accu-Chek) and test strips (Accu-Chek).
Experimental design: C57BL/6 mice fed for 6 weeks with HFD were injected with 15 mg/kg Compound 1 (or saline+DMSO) 3 times a week for 3 weeks (n=6). Whole-blood glucose levels during an insulin tolerance test (ITT) in HFD fed Compound 1-treated mice vs. HFD-fed saline-treated mice and normal-diet fed mice (control ND); minutes indicate time after insulin injection. N.s.=not significant.

HuH7 cell = assay: LDH release from HuH7 cells; format: cell-based, human; details: HuH7, 16 h exposure, data not shown
[3] = 15 mg/kg 3 times a week for 3 weeks

O=C1Nc2cc(C(=O)N3CCC(Cc4ccccc4)CC3)ccc2Nc2ccccc21 [Compound 1] was tested, and the “body weight at end of experiment” value [1, 3] was “significantly reduced”, the “decrease of (liver) triglyceride levels compared to untreated HFD mice” value [1, 3] was 5 fold and the “expression and secretion of miR-122 and precursors in plasma and liver” value [1, 3] was “induced”. The hepatic lipid droplets [1, 3] was “reduced”, the “liver/body weight ratio, treated vs untreated group” value [1, 3] was “decrease” and the “expression of RORα-regulated genes FGF21 and Gpase6” value ([1]; 15 mg/kg 3 times a week for 3 weeks, liver) was “significantly induced”. For the same compound, the WAT inflammation ([1]; mice with established NASH on HFD) was “reducing”, the “insulin sensitivity compared to the untreated cohort” value [2] was “improves” and the “blood glucose in insulin tolerance test after 100 minutes” value ([2]; 100 minutes after insulin) was 70%. For the same compound, the “blood glucose, initial decrease in insulin tolerance test” value ([2]; after 45 minutes post-injection of insulin) was “approximately 55%” and the “toxicity to the cells as measured by LDH release” value (HuH7 cell) was “no apparent toxicity”.
